The values that follow come from publication PMC7606262 (Molecular genetics and metabolism, 2020).

Experiment [1] concerns the target T1, LCAD (long-chain acyl-CoA dehydrogenase) (Homo sapiens, UniProt P28330).
T1 sequence (P28330 31-430): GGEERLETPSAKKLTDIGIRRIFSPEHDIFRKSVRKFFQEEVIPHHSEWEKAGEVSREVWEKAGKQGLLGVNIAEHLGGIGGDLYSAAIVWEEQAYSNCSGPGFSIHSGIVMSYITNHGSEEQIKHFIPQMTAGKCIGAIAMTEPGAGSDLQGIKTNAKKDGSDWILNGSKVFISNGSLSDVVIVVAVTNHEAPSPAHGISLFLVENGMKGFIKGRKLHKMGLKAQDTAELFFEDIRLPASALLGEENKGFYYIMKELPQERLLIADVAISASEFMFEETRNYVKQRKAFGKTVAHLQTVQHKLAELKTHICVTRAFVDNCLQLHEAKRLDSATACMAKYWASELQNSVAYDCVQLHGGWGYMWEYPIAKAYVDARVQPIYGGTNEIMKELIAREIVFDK
The experiment is described as follows: acyl-CoA oxidase assay. It counts as biochemical. Particulars: oxygen as electron acceptor; 50 mM phosphate pH 7.0, 30 °C.

The target in experiment [2] is T2, LCAD (long-chain acyl-CoA dehydrogenase) (Homo sapiens, UniProt P28330, K333Q).
T2 sequence (P28330 31-430 K333Q): T1 sequence (P28330 31-430) with K303Q
The experiment is described as follows: acyl-CoA oxidase assay. It counts as biochemical. Conditions: oxygen as electron acceptor; 50 mM phosphate pH 7.0, 30 °C.

For experiment [3], the target named is T1, LCAD (long-chain acyl-CoA dehydrogenase). The experiment is described as follows: absorbance scan, A443/A280 FAD content. The experiment is classed as binding. Conditions: 100 uM free FAD, 37 °C, 20 min, then dialysis; non-covalent FAD.

Where a chain is given by its changes, count along the chain named.

For the molecule `CCCCCCCCCCCCCCCCCC(=O)SCCNC(=O)CCNC(=O)[C@H](O)C(C)(C)COP(=O)(O)OP(=O)(O)OC[C@H]1O[C@@H](n2cnc3c(N)ncnc32)[C@H](O)[C@@H]1OP(=O)(O)O` [C18-CoA, stearoyl-CoA], the “acyl-CoA oxidase assay (HRP / Amplex UltraRed fluorescence, H2O2)” value in experiment [1] is “C18-CoA was used as substrate as this chain length produces the highest H2O2 production”; in experiment [2], “the presence of the K333Q substitution significantly reduced oxidase activity”. Take `Cc1cc2nc3c(=O)[nH]c(=O)nc-3n(C[C@H](O)[C@H](O)[C@H](O)COP(=O)(O)OP(=O)(O)OC[C@H]3O[C@@H](n4cnc5c(N)ncnc54)[C@H](O)[C@@H]3O)c2cc1C` [FAD]: in experiment [3], the A443/A280 entry is reported as “After incubation of wild-type LCAD with FAD, the A443/A280 ratio, an indicator of enzyme-bound FAD”.
